Laboratory results: US11028093B2, “4,6-substituted-pyrazolo[1,5-a]pyrazines as janus kinase inhibitors” (Array BioPharma Inc., priority 2014, dated 2021)
Read-outs that look alike come from different tables or passages of the source.

Tests used:
Assay type in all cases: biochemical
JAK2 = JAK2 (Homo sapiens (Human), UniProt O60674); experiment: JAK2 Inhibition Assay (Omnia kinase fluorescence peptide substrate assay, 1 mM ATP)
Source text: (§1) The assays described in Examples A, B, C and D for the determination of Tyk2, JAK1, JAK2 and JAK3 kinase activity, respectively, utilized the Omnia® Kinase fluorescence peptide substrate-based technology (Invitrogen). The specific components of the assay mixture are described in Examples A, B, C and D. In these assays, Mg^2+ is chelated upon phosphorylation of the Omnia peptide by the kinase to form a bridge between the chelation-enhanced fluorophore Sox and the phosphate, resulting in an increase in fluorescence emission at 485 nm when excited at […]. The reactions were therefore read at excitation 360 nm and emission was measured at 485 nm every 50 seconds for 45 minutes using a PerkinElmer EnVision Multilabel Plate Reader.
(§2) The final buffer conditions for Tyk2, JAK1, JAK2, and JAK3 assays were as follows: 25 mM HEPES, pH 7.4, 10 mM MgCl2, 0.01% Triton X-100 and 1 mM DTT.
(§3) Two-μL aliquots of these were transferred to a fresh plate for a ten-fold intermediate dilution with assay buffer. Five-μL aliquots of the diluted compounds were then transferred to 20-μL of assay mixtures described in Examples A, B, C and D for a final concentration of DMSO of 2%. […] For each plate, percent of control (POC) values were calculated for each well according to the following equation:
(§4) where Xmax=Average Uninhibited Controls • Xmin=Average Background IC50's were estimated from the POC's using a standard 4-parameter logistic model:
(§5) where A=Minimum Y (Bottom Asymptote) • B=Maximum Y (Top Asymptote) • C=EC50 • D=Slope Factor • X=Compound Concentration (nM) • Y=POC
(§6) The IC50 is defined as the concentration of inhibitor at which the POC equals 50 for the fitted curve.
(§7) Compounds of Formula I were screened for their ability to inhibit JAK2 using the general enzyme inhibition assay method, in which the assay mixture contained 1 mM ATP, 10 μM Omnia® Y7 peptide (Catalog # IVGN KNZ3071C, Invitrogen Corporation, Carlsbad, Calif.) and 4 nM JAK2 in a total volume of 25 μL. JAK2 was purchased from Invitrogen Corporation, Carlsbad, Calif. (catalog # IVGN PV4288).

Human Tyk2 kinase domain = Human Tyk2 kinase domain (Homo sapiens (Human), UniProt P29597); experiment: Tyk2 Inhibition Assay (Omnia kinase fluorescence peptide substrate assay, 1 mM ATP)
Source text: as §1, §2, §3, §4, §5, §6
Compounds of Formula I were screened for their ability to inhibit Tyk2 using the general enzyme inhibition assay method, in which the assay mixture contained 1 mM ATP, 8 μM Omnia® Y12 peptide (Catalog # IVGN KPZ3121C; Invitrogen Corporation, Carlsbad, Calif.) and 1 nM Tyk2 in a total volume of 25 μL. […]

JAK3 = JAK3 (Homo sapiens (Human), UniProt P52333); experiment: JAK3 Inhibition Assay (Omnia kinase fluorescence peptide substrate assay, 1 mM ATP)
Source text: as §1, §2, §3, §4, §5, §6
as §7, with “JAK3” for “JAK2”, “2” for “4”, “PV4080).” for “PV4288).”

JAK1 = JAK1 (Homo sapiens (Human), UniProt P23458); experiment: JAK1 Inhibition Assay (Omnia kinase fluorescence peptide substrate assay, 1 mM ATP)
Source text: as §1, §2
as §3, with “equation: […]” for “equation:”

[1] = read-out: JAK2 Enzyme IC50 1 mM ATP, 1 mM ATP, averaged IC50 ranges
[2] = read-out: TYK2 Enzyme IC50 1 mM ATP, 1 mM ATP, averaged IC50 ranges

JAK2, sequence (O60674 808-1132): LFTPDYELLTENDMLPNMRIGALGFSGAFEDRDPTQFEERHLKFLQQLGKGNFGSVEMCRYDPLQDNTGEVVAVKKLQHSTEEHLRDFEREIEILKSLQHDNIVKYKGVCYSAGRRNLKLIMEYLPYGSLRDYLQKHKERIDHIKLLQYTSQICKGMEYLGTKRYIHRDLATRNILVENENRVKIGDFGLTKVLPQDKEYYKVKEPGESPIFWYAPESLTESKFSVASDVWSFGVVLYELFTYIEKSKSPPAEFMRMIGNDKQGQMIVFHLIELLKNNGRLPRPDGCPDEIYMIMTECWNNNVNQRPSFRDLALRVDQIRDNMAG
JAK3, sequence (P52333 781-1124): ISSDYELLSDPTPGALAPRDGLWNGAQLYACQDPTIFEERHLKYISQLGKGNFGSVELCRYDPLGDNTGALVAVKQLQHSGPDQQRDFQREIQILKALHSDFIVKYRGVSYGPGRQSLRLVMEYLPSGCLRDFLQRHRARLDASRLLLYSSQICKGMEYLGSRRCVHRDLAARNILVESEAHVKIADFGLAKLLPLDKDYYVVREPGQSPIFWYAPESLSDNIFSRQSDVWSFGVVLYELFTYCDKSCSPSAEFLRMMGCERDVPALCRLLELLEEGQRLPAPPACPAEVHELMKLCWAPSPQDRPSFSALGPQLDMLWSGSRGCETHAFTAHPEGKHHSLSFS
Human Tyk2 kinase domain, sequence (P29597 886-1187): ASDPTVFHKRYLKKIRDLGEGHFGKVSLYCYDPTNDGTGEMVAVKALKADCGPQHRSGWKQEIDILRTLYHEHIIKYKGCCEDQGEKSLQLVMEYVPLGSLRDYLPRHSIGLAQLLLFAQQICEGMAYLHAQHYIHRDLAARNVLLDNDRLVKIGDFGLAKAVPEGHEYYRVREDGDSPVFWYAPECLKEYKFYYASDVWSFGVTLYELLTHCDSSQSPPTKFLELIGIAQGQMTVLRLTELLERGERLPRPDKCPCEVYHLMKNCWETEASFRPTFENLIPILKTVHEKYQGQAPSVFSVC
JAK1, sequence (P23458 866-1154): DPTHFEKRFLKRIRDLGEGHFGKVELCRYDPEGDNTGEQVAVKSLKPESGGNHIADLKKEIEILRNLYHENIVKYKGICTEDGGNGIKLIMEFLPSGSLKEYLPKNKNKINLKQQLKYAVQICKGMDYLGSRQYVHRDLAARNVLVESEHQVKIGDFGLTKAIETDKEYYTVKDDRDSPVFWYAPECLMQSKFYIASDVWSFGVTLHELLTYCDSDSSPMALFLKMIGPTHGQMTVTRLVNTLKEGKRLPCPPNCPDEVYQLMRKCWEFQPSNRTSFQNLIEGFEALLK

Compound | IC50 (JAK2; [1]) | IC50 (JAK3) | also measured
CCC(CC)n1cc(-c2nc(-c3cnn(C4CN(S(C)(=O)=O)C4)c3)cn3nccc23)cn1 [Example 37, 6-(1-(1-(methylsulfonyl)azetidin-3-yl)-1H-pyrazol-4-yl)-4-(1-(pentan-3-yl)-1H-pyrazol-4-yl)pyrazolo[1,5-a]pyrazine] | < 0.01 µM | – | –
CCC1(n2cc(-c3nc(-c4cnn(C)c4)cn4nccc34)cn2)CN(S(=O)(=O)C(F)(F)F)C1 [Example 48, 4-(1-(3-ethyl-1-((trifluoromethyl)sulfonyl)azetidin-3-yl)-1H-pyrazol-4-yl)-6-(1-methyl-1H-pyrazol-4-yl)pyrazolo[1,5-a]pyrazine] | < 0.01 µM | – | IC50 (Human Tyk2 kinase domain; [2]): < 0.01 µM
CC[C@@H](CC1CC1)n1cc(-c2nc(-c3cnn(C[C@@H](O)CO)c3)cn3nccc23)cn1 [Example 205, (R)-3-(4-(4-(1-((S)-1-cyclopropylbutan-2-yl)-1H-pyrazol-4-yl)pyrazolo[1,5-a]pyrazin-6-yl)-1H-pyrazol-1-yl)propane-1,2-diol] | – | 1 to 10 µM | IC50 (JAK1): 0.1 to 1 µM; IC50 (Human Tyk2 kinase domain): 0.01 to 0.1 µM; IC50 (JAK2): 0.01 to 0.1 µM
(1s,3s)-3-(4-(4-(1-(pentan- 3-yl)-1H-pyrazol-4- yl)pyrazolo[1,5-a]pyrazin- 6-yl)-1H-pyrazol-1-yl) cyclobutanecarboxamide [Example 168] | 0.01 to 0.1 µM | – | IC50 (JAK3; read-out: JAK3 Enzyme IC50 1 mM ATP, 1 mM ATP, averaged IC50 ranges): 1 to 10 µM; IC50 (JAK1; read-out: JAK1 Enzyme IC50 1 mM ATP, 1 mM ATP, averaged IC50 ranges): 1 to 10 µM
(R)-3-(4-(4-(1-((S)-2,2-dimethylcyclopentyl)-1H-pyrazol-4-yl)pyrazolo[1,5-a]pyrazin-6-yl)-1H-pyrazol-1-yl)propane-1,2-diol [Example 95] | 1 to 10 µM | – | IC50 (Human Tyk2 kinase domain; [2]): 1 to 10 µM

Continued, in another order:

IC50 (JAK2; [1]) | IC50 (JAK3) | Compound | also measured
– | 1 to 10 µM | CCC(CC)n1cc(-c2nc(-c3cnn([C@H]4CC[C@H](O)CC4)c3)cn3nccc23)cn1 [Example 118, trans-4-(4-(4-(1-(pentan-3-yl)-1H-pyrazol-4-yl)pyrazolo[1,5-a]pyrazin-6-yl)-1H-pyrazol-1-yl)cyclohexanol] | –
– | 1 to 10 µM | CCC(CC)n1cc(-c2nc(-c3cnn([C@H]4CC[C@@H](O)CC4)c3)cn3nccc23)cn1 [Example 121, cis-4-(4-(4-(1-(pentan-3-yl)-1H-pyrazol-4-yl)pyrazolo[1,5-a]pyrazin-6-yl)-1H-pyrazol-1-yl)cyclohexanol] | –
– | 1 to 10 µM | CCC(CC)n1cc(-c2nc(-c3cnn([C@H]4C[C@@](C)(O)C4)c3)cn3nccc23)cn1 [Example 162, (1s,3 s)-1-methyl-3-(4-(4-(1-(pentan-3-yl)-1H-pyrazol-4-yl)pyrazolo[1,5-a]pyrazin-6-yl)-1H-pyrazol-1-yl)cyclobutanol] | –
